Experimental data published in patent publication US8269000B2, “Substituted pyrimidine and triazine compounds” (Gruenenthal GmbH, priority 2008, dated 2012).

Key:
[1] = molecular target: T1, rat B1R (Rattus norvegicus, UniProt P97583); assay: FLIPR Ca2+ functional study on bradykinin receptor 1 (rB1R CHO K1 cells); assay type: cell-based; details: CHO-K1, % inhibition rat B1R at 10 μM, read-out: % inh. (rat B1R) 10 μM
T1 construct: expressed in transfected cells; host or cells: CHO K1 cells
T1 sequence (P97583 1-337): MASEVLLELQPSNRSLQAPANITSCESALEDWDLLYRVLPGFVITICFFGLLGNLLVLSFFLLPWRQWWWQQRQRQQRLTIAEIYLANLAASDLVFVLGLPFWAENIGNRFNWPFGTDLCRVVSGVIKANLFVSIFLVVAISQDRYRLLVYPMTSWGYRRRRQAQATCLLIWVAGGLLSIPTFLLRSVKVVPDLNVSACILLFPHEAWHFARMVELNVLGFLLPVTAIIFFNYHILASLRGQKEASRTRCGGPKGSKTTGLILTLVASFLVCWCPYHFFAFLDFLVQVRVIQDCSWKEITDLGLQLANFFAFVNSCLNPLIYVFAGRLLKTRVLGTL
Outline: (§1)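 Antagonism was calculated as % of maximal inhibition of the Ca2+ rise triggered by agonist at EC80 (Lys-Des-Arg9-bradykinin for hB1R, Des-Arg9-bradykinin for rB1R), added 10-20 min after test compound (10 μM or serial dilutions for IC50) to Fluo-4-loaded transfected CHO K1 cells on FLIPR. Duplicates or triplicates, ≥2 independent runs.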

[2] = molecular target: T2, human B1R (Homo sapiens, UniProt P46663); assay: FLIPR Ca2+ functional study on bradykinin receptor 1 (hB1R CHO K1 cells); assay type: cell-based; details: % inhibition human B1R at 10 μM, read-out: % inh. (hum. B1R) 10 μM
T2 construct: expressed in transfected cells; host or cells: CHO K1 cells
T2 sequence (P46663 1-353): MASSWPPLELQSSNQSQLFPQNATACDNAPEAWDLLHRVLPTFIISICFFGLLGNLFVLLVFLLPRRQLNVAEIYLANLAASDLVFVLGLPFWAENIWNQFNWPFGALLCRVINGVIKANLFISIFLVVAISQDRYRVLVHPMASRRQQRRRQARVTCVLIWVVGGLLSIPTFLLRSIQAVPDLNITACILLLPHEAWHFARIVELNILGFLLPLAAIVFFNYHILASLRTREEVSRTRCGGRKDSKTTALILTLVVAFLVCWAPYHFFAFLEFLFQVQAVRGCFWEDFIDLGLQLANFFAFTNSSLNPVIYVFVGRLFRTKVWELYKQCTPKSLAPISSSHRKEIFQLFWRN
Outline: as §1

SMILES | inhibition at 10 µM [1] [%] | inhibition at 10 µM [2] [%]
COc1cc(C)c(S(=O)(=O)N(CCOc2nccc(N3CCC4(CCN(c5ccncc5)CC4)C3)n2)C2CC2)c(C)c1 [Example G-019, N-cyclopropyl-4-methoxy-2,6-dimethyl-N-[2-[[4-[8-(4-pyridyl)-3,8-diazaspiro[4.5]decan-3-yl]-2-pyrimidinyl]oxy]ethyl]benzenesulfonamide] | 102 | 100
COc1cc(C)c(S(=O)(=O)N(CCN(C)c2ccnc(N3CCC4(CCN(c5ccncc5)CC4)CC3)n2)C2CC2)c(C)c1 [Example I-004, N-cyclopropyl-4-methoxy-2,6-dimethyl-N-[2-[methyl-[2-(9-pyridin-4-yl-3,9-diazaspiro[5.5]undecan-3-yl)-pyrimidin-4-yl]-amino]-ethyl]-benzenesulfonic acid amide] | 102 | 85
COc1cc(C)c(S(=O)(=O)N2CCC[C@H]2COc2nccc(N3CCC4(CCN(c5ccncc5)CC4)CC3)n2)c(C)c1 [G_CC-055, 9-[2-[[(2S)-1-(4-methoxy-2,6-dimethylphenyl)sulfonyl-2-pyrrolidinyl)methoxy]-4-pyrimidinyl]-3-(4-pyridyl)-3,9-diazaspiro[5.5]undecane] | 101 | 97
COc1cc(C)c(S(=O)(=O)N(C)CCOc2ccnc(N3CCC4(CCN(c5ccncc5)CC4)CC3)n2)c(C)c1 [H_CC-029, 4-methoxy-N,2,6-trimethyl-N-[2-[[2-[3-(4-pyridyl)-3,9-diazaspiro[5.5]undecan-9-yl]-4-pyrimidinyl]oxy]ethyl]benzenesulfonamide] | 101 | 92
COc1cc(C)c(S(=O)(=O)N(CCOc2nccc(N3CCC(OCCN4CCCC4)(c4cccnc4)CC3)n2)C2CC2)c(C)c1 [Example G-007, N-cyclopropyl-4-methoxy-2,6-dimethyl-N-[2-[[4-[4-(3-pyridyl)-4-(2-1-pyrrolidinylethoxy)-1-piperidinyl]-2-pyrimidinyl]oxy]ethyl]benzenesulfonamide] | 97 | 100
